Laboratory results published in ChEMBL document CHEMBL3244418, “Synthesis and central nervous system activity of quinazolones related to 2-methyl-3-(o-tolyl)-4(3H)-quinazolone (methaqualone)” (J Med Chem, 1977).

Experiments:
[1] = test system: Mus musculus; test: Hypnotic activity in ip dosed CFLP mouse assessed as loss of righting reflex; type: functional
[2] = test system: Mus musculus; test: Anticonvulsant activity in ip dosed CFLP mouse assessed as inhibition of pentylenetetrazole-induced seizure; type: functional
[3] = test system: Mus musculus; test: Anticonvulsant activity in ip dosed CFLP mouse assessed as inhibition of maximum electroshock-induced seizure; type: functional
[4] = test system: Mus musculus; test: […] activity in po dosed CFLP mouse assessed as inhibition of benzoquinone-induced writhing; type: functional
[5] = test system: Mus musculus; test: Hypnotic activity in ip dosed CFLP mouse after 30 mins by rotary drum test; type: functional; details: 0.5 h
[6] = Chemical stability of the compound assessed as methaqualone/sulfur/disulfide formation; type: physicochemical

SMILES	ED50 [1]	ED50 [2]	ED50 [3]	ED50 [4]	ED50 [5]	Stability [6]
CCCOCc1nc2ccccc2c(=O)n1-c1ccccc1C	> 400 mg/kg	150 mg/kg	> 200 mg/kg	> 200 mg/kg		
Br.C/N=C(/NC)SCc1nc2ccccc2c(=O)n1-c1ccccc1Cl	150 mg/kg	40 mg/kg	30 mg/kg	200 mg/kg	27 mg/kg	
Br.O=c1c2ccccc2nc(CSC2=NCCN2)n1-c1ccccc1	200 mg/kg	> 50 mg/kg	50 mg/kg	50 mg/kg	> 50 mg/kg	
Br.C/N=C(\NC)SCc1nc2ccccc2c(=O)n1-c1ccccc1	> 400 mg/kg	50 mg/kg	40 mg/kg	200 mg/kg	> 50 mg/kg	
Cc1ccccc1-n1c(CSC(N)=O)nc2ccccc2c1=O	400 mg/kg	56 mg/kg	120 mg/kg	> 200 mg/kg	200 mg/kg	
Br.Cc1c(Cl)cccc1-n1c(CSC2=NCCN2)nc2ccccc2c1=O	80 mg/kg	25 mg/kg	> 25 mg/kg		> 25 mg/kg	
Br.O=c1c2ccccc2nc(CSC2=NCCN2)n1-c1ccc(Cl)cc1	> 200 mg/kg	37.5 mg/kg	35 mg/kg	> 75 mg/kg	47 mg/kg	
Br.Cc1ccccc1-n1c(CSC(=N)N)nc2ccccc2c1=O	56 mg/kg	28 mg/kg	65 mg/kg	> 50 mg/kg	35 mg/kg	
CCCSCc1nc2ccccc2c(=O)n1-c1ccccc1C	> 800 mg/kg	70 mg/kg	160 mg/kg	> 200 mg/kg	100 mg/kg	
Br.C/N=C(\NC)SCc1nc2ccccc2c(=O)n1-c1ccccc1F	> 400 mg/kg	> 50 mg/kg	45 mg/kg	> 50 mg/kg	54 mg/kg	
CCCCOCc1nc2ccccc2c(=O)n1-c1ccccc1C	> 400 mg/kg		120 mg/kg	> 200 mg/kg	88 mg/kg	
Br.Cc1ccccc1-n1c(CS/C(N)=N/N)nc2ccccc2c1=O	100 mg/kg	23 mg/kg	35 mg/kg		15.5 mg/kg	
Br.O=c1c2ccccc2nc(CSC2=NCCN2)n1-c1ccccc1F	200 mg/kg	100 mg/kg	37.5 mg/kg	90 mg/kg	32 mg/kg	
Br.N=C(N)SCc1nc2ccccc2c(=O)n1-c1ccccc1Cl	200 mg/kg			90 mg/kg		
Cc1ccccc1-n1c(CO)nc2ccccc2c1=O	> 400 mg/kg	70 mg/kg	135 mg/kg	> 200 mg/kg	56 mg/kg	
Br.Cc1ccccc1-n1c(CSC2=NCCCN2)nc2ccccc2c1=O	200 mg/kg		50 mg/kg	170 mg/kg	39 mg/kg	
Cc1ccccc1-n1c(CSS(=O)(=O)O)nc2ccccc2c1=O	150 mg/kg	39 mg/kg	82 mg/kg	> 200 mg/kg	44 mg/kg	
CCOCc1nc2ccccc2c(=O)n1-c1ccccc1C	300 mg/kg		64 mg/kg	> 200 mg/kg	27 mg/kg	
COc1ccccc1-n1c(CS)nc2ccccc2c1=O						Unstable
Cc1ccccc1-n1c(CF)nc2ccccc2c1=O.Cl	75 mg/kg	16 mg/kg	14.5 mg/kg		18 mg/kg	
